Measurements reported in paper PMC11078216, “Discovery of potent and selective activity-based probes (ABPs) for the deubiquitinating enzyme USP30” (RSC Chemical Biology, 2024).

Experiments:
Assay in all cases: ABPP chemical proteomics (LC-MS/MS) in HEK293T cells
Type in all cases: cell-based
[1] = molecular target: T1, HMGCS1 (Homo sapiens, UniProt Q01581); conditions: IMP-2587 labelling vs DMSO, 30 nM, 10 min, HEK293T (Table S2, Fig.5a)
T1 construct: endogenous in cells; host or cells: HEK293T
Outline: (§1)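 After inhibitor treatment, HEK293T cells were exposed to ABP 2 or ABP 4 at indicated concentrations (1 h, 37 °C). Tagged proteins were captured via click chemistry and NeutrAvidin enrichment, and relative abundance was measured by LC-MS/MS.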

[2] = molecular target: T2, MDC1 (Homo sapiens, UniProt Q14676); conditions: IMP-2586 labelling vs DMSO, 30 nM, 10 min, HEK293T (Table S4, Fig.5c)
T2 construct: endogenous in cells; host or cells: HEK293T
Outline: as §1

[3] = molecular target: T3, DCD (Homo sapiens, UniProt P81605); conditions: compound 1 out-competition with IMP-2587 labelling, HEK293T (Table S3, Fig.5b)
T3 construct: endogenous in cells; host or cells: HEK293T
Outline: as §1

T2 sequence (Q14676 whole entry): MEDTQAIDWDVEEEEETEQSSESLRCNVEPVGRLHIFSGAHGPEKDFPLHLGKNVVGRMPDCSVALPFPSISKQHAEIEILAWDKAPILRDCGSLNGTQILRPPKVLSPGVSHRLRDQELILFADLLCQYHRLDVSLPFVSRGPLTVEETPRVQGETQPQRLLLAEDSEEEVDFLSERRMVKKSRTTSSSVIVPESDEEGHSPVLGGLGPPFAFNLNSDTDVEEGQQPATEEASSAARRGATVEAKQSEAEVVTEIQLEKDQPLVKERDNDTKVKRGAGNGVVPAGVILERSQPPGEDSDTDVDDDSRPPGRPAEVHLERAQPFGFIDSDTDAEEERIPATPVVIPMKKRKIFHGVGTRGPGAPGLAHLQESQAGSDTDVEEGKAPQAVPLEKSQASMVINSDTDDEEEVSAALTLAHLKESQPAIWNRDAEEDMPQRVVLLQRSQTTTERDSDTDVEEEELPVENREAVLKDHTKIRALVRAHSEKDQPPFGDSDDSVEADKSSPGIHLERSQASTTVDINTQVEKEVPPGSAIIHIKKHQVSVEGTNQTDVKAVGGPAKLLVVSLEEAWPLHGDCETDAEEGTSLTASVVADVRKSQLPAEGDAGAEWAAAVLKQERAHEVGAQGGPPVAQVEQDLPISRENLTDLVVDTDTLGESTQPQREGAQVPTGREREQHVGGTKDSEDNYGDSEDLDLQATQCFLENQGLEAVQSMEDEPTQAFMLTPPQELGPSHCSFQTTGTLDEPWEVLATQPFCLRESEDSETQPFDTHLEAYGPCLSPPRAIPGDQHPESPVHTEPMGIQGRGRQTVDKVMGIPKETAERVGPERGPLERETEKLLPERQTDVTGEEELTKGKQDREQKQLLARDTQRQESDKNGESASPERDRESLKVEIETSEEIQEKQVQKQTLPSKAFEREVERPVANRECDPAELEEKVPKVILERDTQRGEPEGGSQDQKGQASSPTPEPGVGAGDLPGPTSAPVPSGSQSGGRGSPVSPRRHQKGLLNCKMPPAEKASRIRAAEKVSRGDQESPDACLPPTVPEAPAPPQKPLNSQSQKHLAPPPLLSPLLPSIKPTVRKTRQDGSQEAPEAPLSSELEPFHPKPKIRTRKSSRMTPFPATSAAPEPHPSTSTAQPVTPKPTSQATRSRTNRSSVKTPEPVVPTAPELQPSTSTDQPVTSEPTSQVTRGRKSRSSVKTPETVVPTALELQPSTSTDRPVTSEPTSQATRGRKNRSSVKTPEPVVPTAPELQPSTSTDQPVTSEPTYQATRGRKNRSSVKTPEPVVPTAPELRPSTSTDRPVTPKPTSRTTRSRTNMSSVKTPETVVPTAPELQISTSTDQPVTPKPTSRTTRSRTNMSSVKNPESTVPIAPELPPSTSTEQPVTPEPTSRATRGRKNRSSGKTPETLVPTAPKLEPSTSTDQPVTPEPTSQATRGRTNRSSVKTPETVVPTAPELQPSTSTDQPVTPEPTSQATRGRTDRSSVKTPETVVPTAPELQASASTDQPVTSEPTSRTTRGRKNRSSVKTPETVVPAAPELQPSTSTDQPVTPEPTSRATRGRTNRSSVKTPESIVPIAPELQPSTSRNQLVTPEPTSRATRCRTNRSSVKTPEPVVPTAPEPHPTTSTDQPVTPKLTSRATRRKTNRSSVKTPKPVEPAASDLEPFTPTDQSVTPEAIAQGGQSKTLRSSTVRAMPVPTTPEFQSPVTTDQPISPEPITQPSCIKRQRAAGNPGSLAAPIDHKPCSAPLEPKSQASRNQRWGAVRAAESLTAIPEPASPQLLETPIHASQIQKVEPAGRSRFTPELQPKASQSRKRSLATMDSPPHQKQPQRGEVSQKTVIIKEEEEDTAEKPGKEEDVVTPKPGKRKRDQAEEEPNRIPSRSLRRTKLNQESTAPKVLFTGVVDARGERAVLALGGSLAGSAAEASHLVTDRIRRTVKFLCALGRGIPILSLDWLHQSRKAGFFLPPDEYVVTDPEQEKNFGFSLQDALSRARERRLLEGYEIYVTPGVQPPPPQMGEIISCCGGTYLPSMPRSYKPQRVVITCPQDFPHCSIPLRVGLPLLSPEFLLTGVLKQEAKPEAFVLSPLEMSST
T1 sequence (Q01581 whole entry): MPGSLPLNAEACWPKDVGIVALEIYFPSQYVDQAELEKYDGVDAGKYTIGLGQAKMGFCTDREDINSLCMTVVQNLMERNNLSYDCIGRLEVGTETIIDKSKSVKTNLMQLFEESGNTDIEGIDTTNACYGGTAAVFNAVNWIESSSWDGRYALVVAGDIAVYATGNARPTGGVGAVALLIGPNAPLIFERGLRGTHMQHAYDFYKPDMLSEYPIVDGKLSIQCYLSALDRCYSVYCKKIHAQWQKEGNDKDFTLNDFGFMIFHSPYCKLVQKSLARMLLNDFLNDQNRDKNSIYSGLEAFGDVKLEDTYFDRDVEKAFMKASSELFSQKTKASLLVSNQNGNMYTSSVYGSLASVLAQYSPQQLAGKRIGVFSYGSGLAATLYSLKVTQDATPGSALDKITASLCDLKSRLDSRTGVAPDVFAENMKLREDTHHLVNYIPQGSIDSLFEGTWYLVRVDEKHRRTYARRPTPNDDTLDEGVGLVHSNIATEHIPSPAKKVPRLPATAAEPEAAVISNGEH
T3 sequence (P81605 20-110): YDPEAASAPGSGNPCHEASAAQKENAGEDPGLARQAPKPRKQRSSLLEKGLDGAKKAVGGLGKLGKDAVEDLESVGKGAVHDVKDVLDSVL

With `C#Cc1cccc(-c2cc(NC(=O)CC3CCN(C#N)C3)on2)c1` (stereo not drawn) [IMP-2587] the “Difference (log2 fold change of enrichment)” value [1] was 0.75.

For `N#CN1CC[C@@H](NC(=O)c2cc(-c3ccccc3Oc3ccc(N=[N+]=[N-])cc3)n[nH]2)C1` [IMP-2586], the “Difference (log2 fold change of enrichment)” value [2] was 0.38.

With `N#CN1CC[C@H](CC(=O)Nc2cc(-c3cccc(Cl)c3)no2)C1` [compound 1, reference compound] the “Difference (log2 fold change of enrichment)” value [3] was -0.34.
